≈ marks a conversion by molar mass, not a printed value.
Experiments:
Coagulation factor XI [1] = biological target: T1, Coagulation factor XI (Homo sapiens, UniProt P03951); experiment: Inhibition of human F11a using D-Leu-Pro-Arg*Rh110-D-Pro as substrate preincubated for 60 mins followed by substrate addition and measured after 60 mins by fluorescence assay
Complement factor D = Complement factor D (Homo sapiens, UniProt P00746); type: single protein
Plasma kallikrein = Plasma kallikrein (Homo sapiens, UniProt P03952); type: single protein
Coagulation factor XI [2] = biological target: T1, Coagulation factor XI; experiment: Inhibition of […] human plasma F11a catalytic domain expressed in Escherichia coli strain BL21(DE3) using D-Leu-Pro-Arg*Rh110-D-Pro as substrate preincubated for 60 mins followed by substrate addition and measured after 60 mins by fluorescence assay
Coagulation factor VII = biological target: T2, Coagulation factor VII (Homo sapiens, UniProt P08709); type: single protein
T2 sequence (P08709 whole entry): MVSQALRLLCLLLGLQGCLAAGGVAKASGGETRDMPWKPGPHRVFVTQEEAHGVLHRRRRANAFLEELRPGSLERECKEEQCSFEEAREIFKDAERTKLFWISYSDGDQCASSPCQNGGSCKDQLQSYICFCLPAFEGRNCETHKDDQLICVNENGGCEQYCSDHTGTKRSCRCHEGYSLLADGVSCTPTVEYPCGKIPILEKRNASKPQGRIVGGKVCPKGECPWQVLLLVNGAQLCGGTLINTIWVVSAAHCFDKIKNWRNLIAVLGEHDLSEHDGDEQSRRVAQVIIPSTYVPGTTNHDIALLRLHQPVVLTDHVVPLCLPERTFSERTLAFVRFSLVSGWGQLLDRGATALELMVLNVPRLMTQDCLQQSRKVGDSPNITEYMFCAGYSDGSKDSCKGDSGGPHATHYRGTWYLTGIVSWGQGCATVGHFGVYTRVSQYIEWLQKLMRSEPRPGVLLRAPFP

Coagulation factor IX = Coagulation factor IX (Homo sapiens, UniProt P00740); type: single protein
Coagulation factor X = Coagulation factor X (Homo sapiens, UniProt P00742); type: single protein
Prothrombin = Prothrombin (Homo sapiens, UniProt P00734); type: single protein
[3] = biological target: Tissue-type plasminogen activator (Homo sapiens, UniProt P00750); type: single protein
Plasminogen = Plasminogen (Homo sapiens, UniProt P00747); type: single protein
[4] = biological target: T3, Urokinase-type plasminogen activator (Homo sapiens, UniProt P00749); type: single protein
[5] = Dose normalized Cmax in C57BL/6 mouse at 1 mg/kg, iv bolus injection or 3 mg/kg, po by LC-MS/MS analysis; type: ADME, organism-based; details: in vivo
[6] = Clearance in C57BL/6 mouse at 1 mg/kg, iv bolus injection or 3 mg/kg, po by LC-MS/MS analysis; type: ADME, organism-based; details: in vivo
[7] = Volume of distribution at steady state in C57BL/6 mouse at 1 mg/kg, iv bolus injection or 3 mg/kg, po by LC-MS/MS analysis; type: ADME, organism-based; details: in vivo, read-out: Vdss
[8] = Terminal half life in C57BL/6 mouse at 1 mg/kg, iv bolus injection or 3 mg/kg, po by LC-MS/MS analysis; type: ADME, organism-based; details: in vivo, read-out: beta t1/2 (converted)
[9] = Dose normalized AUC in C57BL/6 mouse at 3 mg/kg, po by LC-MS/MS analysis; type: ADME, organism-based; details: in vivo
[10] = Oral bioavailability in C57BL/6 mouse at 3 mg/kg by LC-MS/MS analysis; type: ADME, organism-based; details: in vivo
Homo sapiens = species: Homo sapiens; experiment: Selectivity ratio of IC50 for inhibition of human complement FD to IC50 for inhibition of human F11a
[11] = human, caco-2; BLD = below limit of detection
in vitro [12] = details: human, Caco-2
physchem = details: aqueous buffer, pH 6.8
[13] = biological target: T3, Urokinase-type plasminogen activator; type: ADME
in vitro [14] = details: human, Caco-2; remark: listed apart in the source
in vitro [15] = details: human, Caco-2; remark: listed apart in the source
Plasma [16] = experiment: Anticoagulant activity in human plasma assessed as concentration required to double the activated partial thromboplastin time incubated for 3 mins followed by calcium chloride addition by aPTT-s reagent based automated coagulometric method; type: functional
[17] = Dose normalized Cmax in C57BL/6 mouse at 1 mg/kg, iv bolus injection or 10 mg/kg, po by LC-MS/MS analysis; type: ADME, organism-based; details: in vivo
[18] = Lipophilicity, log D of compound at pH 6.8; type: physicochemical; details: buffer
[19] = Terminal half life in C57BL/6 mouse at 1 mg/kg, iv bolus injection or 10 mg/kg, po by LC-MS/MS analysis; type: ADME, organism-based; details: in vivo, read-out: beta t1/2 (converted)
[20] = Dose normalized AUC in C57BL/6 mouse at 1 mg/kg, iv by LC-MS/MS analysis; type: ADME, organism-based; details: in vivo
[21] = Volume of distribution at steady state in C57BL/6 mouse at 1 mg/kg, iv bolus injection or 10 mg/kg, po by LC-MS/MS analysis; type: ADME, organism-based; details: in vivo, read-out: Vdss
[22] = biological target: Voltage-gated inwardly rectifying potassium channel KCNH2 (Homo sapiens, UniProt Q12809)
Plasma [23] = experiment: Effect on coagulation in human plasma assessed as concentration required to double the prothrombin time by thromboplastin-DS reagent based automated coagulometric method; type: ADME, cell-free

Coagulation factor IX, sequence (P00740 47-191 limits assumed): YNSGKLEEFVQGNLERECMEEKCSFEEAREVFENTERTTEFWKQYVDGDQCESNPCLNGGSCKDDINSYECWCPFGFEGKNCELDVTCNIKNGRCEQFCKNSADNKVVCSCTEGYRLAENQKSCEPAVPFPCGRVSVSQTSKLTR
Coagulation factor IX, sequence (P00740 227-461 limits assumed): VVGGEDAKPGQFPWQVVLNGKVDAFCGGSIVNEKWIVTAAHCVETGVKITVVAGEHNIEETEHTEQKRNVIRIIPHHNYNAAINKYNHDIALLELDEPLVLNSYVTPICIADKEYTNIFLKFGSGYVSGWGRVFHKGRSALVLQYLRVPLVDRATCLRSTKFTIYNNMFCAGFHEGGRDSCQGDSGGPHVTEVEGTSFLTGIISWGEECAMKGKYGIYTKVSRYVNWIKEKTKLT
T1 sequence (P03951 19-387 limits assumed): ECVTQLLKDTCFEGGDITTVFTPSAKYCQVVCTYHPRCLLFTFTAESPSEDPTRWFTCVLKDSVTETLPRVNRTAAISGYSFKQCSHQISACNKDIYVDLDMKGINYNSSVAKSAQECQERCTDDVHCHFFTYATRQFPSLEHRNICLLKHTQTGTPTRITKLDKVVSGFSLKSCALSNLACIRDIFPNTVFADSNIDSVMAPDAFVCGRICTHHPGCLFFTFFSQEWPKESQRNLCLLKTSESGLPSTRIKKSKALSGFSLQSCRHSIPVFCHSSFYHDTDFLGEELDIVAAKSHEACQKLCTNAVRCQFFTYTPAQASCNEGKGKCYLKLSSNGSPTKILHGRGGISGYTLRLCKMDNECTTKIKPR
T1 sequence (P03951 388-625 limits assumed): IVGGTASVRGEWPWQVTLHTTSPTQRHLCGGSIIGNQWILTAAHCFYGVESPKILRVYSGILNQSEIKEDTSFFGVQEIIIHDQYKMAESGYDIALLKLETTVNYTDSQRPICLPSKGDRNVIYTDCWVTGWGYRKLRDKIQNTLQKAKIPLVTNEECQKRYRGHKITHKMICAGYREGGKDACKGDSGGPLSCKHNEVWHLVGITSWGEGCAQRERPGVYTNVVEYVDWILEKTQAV
Tissue-type plasminogen activator, sequence (P00750 whole entry): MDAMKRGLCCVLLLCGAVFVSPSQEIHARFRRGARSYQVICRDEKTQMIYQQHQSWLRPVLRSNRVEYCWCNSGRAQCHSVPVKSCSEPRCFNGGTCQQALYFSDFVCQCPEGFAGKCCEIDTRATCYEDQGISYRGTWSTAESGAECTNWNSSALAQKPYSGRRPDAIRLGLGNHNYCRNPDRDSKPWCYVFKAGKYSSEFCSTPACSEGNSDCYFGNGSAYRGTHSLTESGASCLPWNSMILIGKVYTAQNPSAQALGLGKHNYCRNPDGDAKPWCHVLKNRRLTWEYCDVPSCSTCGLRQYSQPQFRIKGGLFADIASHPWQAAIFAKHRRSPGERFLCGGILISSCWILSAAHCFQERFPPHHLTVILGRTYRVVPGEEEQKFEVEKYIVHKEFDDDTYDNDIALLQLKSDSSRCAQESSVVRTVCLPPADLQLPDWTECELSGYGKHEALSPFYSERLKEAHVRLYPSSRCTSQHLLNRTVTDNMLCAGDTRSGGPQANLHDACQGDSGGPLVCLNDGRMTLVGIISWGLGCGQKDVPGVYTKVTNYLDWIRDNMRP
Plasma kallikrein, sequence (P03952 20-390 limits assumed): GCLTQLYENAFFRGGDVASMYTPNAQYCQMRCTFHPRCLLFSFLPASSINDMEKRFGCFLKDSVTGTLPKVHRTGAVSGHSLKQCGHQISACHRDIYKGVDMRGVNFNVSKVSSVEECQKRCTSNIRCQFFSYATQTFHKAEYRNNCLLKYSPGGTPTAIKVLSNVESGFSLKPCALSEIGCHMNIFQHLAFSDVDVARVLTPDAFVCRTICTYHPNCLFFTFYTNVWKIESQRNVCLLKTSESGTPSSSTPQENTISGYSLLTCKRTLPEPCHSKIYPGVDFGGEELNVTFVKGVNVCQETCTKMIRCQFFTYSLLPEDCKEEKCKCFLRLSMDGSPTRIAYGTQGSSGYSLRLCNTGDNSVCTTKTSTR
Plasma kallikrein, sequence (P03952 391-638 limits assumed): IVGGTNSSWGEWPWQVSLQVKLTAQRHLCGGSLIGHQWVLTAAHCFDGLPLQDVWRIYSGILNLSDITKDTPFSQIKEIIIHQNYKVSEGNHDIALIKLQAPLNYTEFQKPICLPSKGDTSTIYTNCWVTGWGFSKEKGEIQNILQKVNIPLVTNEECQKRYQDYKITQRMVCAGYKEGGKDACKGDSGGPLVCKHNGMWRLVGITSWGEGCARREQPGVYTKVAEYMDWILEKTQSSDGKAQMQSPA
Coagulation factor X, sequence (P00742 41-179 limits assumed): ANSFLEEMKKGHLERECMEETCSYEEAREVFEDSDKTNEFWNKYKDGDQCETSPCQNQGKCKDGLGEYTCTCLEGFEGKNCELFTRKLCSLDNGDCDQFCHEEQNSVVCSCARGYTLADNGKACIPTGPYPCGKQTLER
Coagulation factor X, sequence (P00742 235-488 limits assumed): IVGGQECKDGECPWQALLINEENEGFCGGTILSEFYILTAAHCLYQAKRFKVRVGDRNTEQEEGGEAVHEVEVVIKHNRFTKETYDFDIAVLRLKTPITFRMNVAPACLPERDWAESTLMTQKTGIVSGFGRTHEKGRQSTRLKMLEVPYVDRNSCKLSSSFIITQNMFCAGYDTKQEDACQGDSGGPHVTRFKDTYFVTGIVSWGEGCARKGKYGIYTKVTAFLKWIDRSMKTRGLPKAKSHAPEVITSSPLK
Complement factor D, sequence (P00746 whole entry): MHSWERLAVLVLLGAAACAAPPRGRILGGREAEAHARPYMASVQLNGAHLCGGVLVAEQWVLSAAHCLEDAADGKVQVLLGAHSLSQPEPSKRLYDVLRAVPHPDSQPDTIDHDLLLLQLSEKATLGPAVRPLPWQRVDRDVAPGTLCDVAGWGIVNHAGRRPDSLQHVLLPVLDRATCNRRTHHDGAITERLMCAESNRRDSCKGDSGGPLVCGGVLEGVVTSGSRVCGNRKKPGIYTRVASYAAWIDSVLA
Plasminogen, sequence (P00747 97-580 limits assumed): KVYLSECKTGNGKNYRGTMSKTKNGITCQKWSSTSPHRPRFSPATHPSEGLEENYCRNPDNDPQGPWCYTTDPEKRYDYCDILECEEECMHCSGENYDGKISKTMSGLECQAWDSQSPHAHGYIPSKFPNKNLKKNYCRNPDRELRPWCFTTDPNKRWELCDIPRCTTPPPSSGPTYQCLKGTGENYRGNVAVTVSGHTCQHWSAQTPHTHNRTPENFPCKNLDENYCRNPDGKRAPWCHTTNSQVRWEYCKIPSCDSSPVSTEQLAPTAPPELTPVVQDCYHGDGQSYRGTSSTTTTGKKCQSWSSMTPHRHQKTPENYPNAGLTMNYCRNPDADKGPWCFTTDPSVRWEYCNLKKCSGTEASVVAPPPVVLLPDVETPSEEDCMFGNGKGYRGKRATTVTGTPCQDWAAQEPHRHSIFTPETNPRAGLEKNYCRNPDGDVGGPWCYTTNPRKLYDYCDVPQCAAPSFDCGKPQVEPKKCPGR
Plasminogen, sequence (P00747 581-810 limits assumed): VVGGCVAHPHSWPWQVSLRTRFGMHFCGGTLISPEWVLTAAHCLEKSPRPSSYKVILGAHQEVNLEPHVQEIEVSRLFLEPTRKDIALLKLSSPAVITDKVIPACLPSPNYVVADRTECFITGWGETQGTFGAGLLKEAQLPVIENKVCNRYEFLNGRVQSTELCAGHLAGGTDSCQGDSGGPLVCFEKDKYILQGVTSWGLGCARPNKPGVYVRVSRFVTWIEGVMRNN
Voltage-gated inwardly rectifying potassium channel KCNH2, sequence (Q12809 whole entry): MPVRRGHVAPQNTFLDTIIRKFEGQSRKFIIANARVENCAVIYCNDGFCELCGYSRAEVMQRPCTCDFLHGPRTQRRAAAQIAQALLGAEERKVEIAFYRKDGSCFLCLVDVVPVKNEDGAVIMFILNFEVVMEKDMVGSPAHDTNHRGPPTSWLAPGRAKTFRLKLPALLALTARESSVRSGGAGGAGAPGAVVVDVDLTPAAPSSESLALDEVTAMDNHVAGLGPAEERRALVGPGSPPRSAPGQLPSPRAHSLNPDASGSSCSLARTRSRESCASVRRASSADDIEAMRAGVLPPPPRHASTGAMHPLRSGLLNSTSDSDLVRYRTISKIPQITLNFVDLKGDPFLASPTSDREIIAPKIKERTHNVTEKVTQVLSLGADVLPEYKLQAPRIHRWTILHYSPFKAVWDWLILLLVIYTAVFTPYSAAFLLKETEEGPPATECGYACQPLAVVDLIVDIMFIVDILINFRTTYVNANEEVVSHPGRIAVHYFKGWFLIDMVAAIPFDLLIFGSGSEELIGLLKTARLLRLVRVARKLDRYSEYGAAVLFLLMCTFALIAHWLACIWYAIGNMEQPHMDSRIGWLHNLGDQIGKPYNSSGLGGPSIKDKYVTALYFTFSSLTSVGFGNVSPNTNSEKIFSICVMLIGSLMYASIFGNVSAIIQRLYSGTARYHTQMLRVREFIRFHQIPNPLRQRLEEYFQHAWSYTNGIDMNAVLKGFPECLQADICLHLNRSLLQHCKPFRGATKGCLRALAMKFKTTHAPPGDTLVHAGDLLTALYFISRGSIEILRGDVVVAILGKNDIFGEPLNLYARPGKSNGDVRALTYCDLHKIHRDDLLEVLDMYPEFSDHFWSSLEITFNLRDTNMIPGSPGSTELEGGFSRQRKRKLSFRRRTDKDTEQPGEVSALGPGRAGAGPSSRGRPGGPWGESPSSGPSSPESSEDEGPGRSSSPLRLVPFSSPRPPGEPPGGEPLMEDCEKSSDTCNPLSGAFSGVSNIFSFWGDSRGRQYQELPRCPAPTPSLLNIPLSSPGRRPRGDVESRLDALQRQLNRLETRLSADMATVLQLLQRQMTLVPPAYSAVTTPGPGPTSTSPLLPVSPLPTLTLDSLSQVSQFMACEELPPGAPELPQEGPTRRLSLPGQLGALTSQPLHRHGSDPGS

Row | Structure (SMILES) | IC50 (Coagulation factor XI [1]) [nM] | IC50 (Complement factor D) [nM] | IC50 (Plasma kallikrein) [nM] | IC50 (Coagulation factor XI [2]) [nM] | IC50 (Coagulation factor VII) [nM] | IC50 (Coagulation factor IX) [nM] | IC50 (Coagulation factor X) [nM] | IC50 (Prothrombin) [nM] | IC50 [3] [nM] | IC50 (Plasminogen) [nM] | IC50 [4] [nM] | other results
1 | COc1cccc(C(=O)O)c1OCC(O)c1cc(-c2ccc3c(c2)[C@H](N)CO3)cc(C(C)C)c1 (mixture of isomers) | 40 | 27200 | 160 | 8110 | 12500 | 15500 | 16300 | 7430 | 6680 | 46200 | 1130 | –
2 | CC1(C)COc2c(COc3ccccc3CC(=O)O)cc(-c3ccc4c(c3)[C@H](N)CCO4)cc21 | 6 | 15000 | 4 | 260 | 75000 | 1600 | 4300 | 860 | 190 | 14000 | – | IC50 [13]: 950 nM; Ratio IC50 (Homo sapiens): 2500
3 | CC(C)(O)c1cc(COc2ccccc2CC(=O)O)cc(-c2ccc3c(c2)CNCC3)c1 | 100 | 230 | 330 | 430 | – | – | – | – | – | – | – | –
4 | CC(C)c1cc(CCOc2c(Cl)cccc2C(=O)O)cc(-c2ccc3c(c2)[C@H](N)CO3)c1 | 15 | 34200 | 21 | 5490 | 20500 | 9600 | 11100 | 6220 | 3670 | 34000 | 930 | –
5 | NC1COc2ccc(-c3cccc(COc4ccccc4CC(=O)O)c3)cc21 (racemic) | 200 | 340 | 1300 | – | – | – | – | – | – | – | – | –
6 | NCc1cccc(-c2cccc(COc3ccccc3CC(=O)O)c2)c1 | – | – | 3100 | – | 1400 | – | – | – | – | 2200 | – | Cmax/dose [17]: 2591 nM; logD [18]: 1.91; half-life [19]: 1.6 h; AUC/dose [20]: 3284 nM·h; Vd [21]: 0.7 L/kg; IC50 [22]: > 30000 nM
7 | NC1COc2ccc(C(=O)N3C[C@@H](c4ccccc4)C[C@H]3C(=O)Nc3cccc(Cl)c3)cc21 (mixture of isomers) | 970 | – | 1200 | – | – | – | – | – | – | – | – | –
8 | CC(C)c1cc(CCOc2ccccc2C(=O)O)cc(-c2ccc3c(c2)[C@H](N)CO3)c1 | 12 | 1320 | 25 | 1190 | 3270 | 40 | 240 | 50 | 90 | 590 | 20 | –
9 | Cc1cccc(C(=O)O)c1OCCc1cc(-c2ccc3c(c2)[C@H](N)CO3)cc(C(C)C)c1 | 17 | > 100000 | 41 | 6620 | 45100 | 11300 | 12500 | 9820 | 4130 | > 100000 | 2480 | –
10 | CC(C)(C(N)=O)c1cc(COc2ccccc2CC(=O)O)cc(-c2ccc3c(c2)[C@H](N)CO3)c1 | 9 | 320 | 11 | 67 | – | – | – | – | – | – | – | Ratio IC50 (Homo sapiens): 80; Papp [11]: Bld; Papp B→A (in vitro [12]): 4 ×10⁻⁶ cm/s; solubility thermodynamic (physchem): 780 µM (≈ 359 µg/mL)
11 | CC(C)c1cc(CCNc2ccccc2C(=O)O)cc(-c2ccc3c(c2)[C@H](N)CO3)c1 | 2520 | – | – | – | – | – | – | – | – | – | – | –
12 | O=C(O)Cc1ccccc1OCc1cccc(-c2ccc3c(c2)CNCC3)c1 | 400 | 800 | – | – | – | – | – | – | – | – | – | –

More lines, main results first:

Row | IC50 (Coagulation factor XI [1]) [nM] | IC50 (Complement factor D) [nM] | IC50 (Plasma kallikrein) [nM] | IC50 (Coagulation factor XI [2]) [nM] | IC50 (Coagulation factor VII) [nM] | IC50 (Coagulation factor IX) [nM] | IC50 (Coagulation factor X) [nM] | IC50 (Prothrombin) [nM] | IC50 [3] [nM] | IC50 (Plasminogen) [nM] | IC50 [4] [nM] | Structure (SMILES) | other results
13 | 4 | 320 | 6 | 170 | – | – | – | – | – | – | – | CC(C)(O)c1cc(COc2ccccc2CC(=O)O)cc(-c2ccc3c(c2)[C@H](N)CO3)c1 | Cmax/dose [5]: 99 nM; clearance [6]: 19 mL/min/kg; Vd [7]: 0.4 L/kg; half-life [8]: 1.7 h; AUC/dose [9]: 186 nM·h; bioavailability [10]: 3%; Ratio IC50 (Homo sapiens): 40; Papp [11]: Bld; Papp B→A (in vitro [12]): 19 ×10⁻⁶ cm/s; solubility thermodynamic (physchem): > 1000 µM
14 | 2 | 73600 | 2 | 170 | 8750 | 7860 | 1710 | 6140 | 490 | 9580 | 250 | CC(C)c1cc(-c2ccc3c(c2)[C@H](N)CO3)cc(C(O)CN2CCc3cccc(C(=O)O)c32)c1 (mixture of isomers) | Ratio IC50 (Homo sapiens): 30000
15 | 3 | 17500 | 9 | 240 | 28300 | 10200 | 6210 | 9090 | 2200 | 30800 | 400 | COc1cccc(C(=O)O)c1OCCc1cc(-c2ccc3c(c2)[C@H](N)CO3)cc(C(C)C)c1 | –
16 | 4 | 40 | 2 | 50 | – | – | – | – | – | – | – | CC(C)(C#N)c1cc(COc2ccccc2CC(=O)O)cc(-c2ccc3c(c2)[C@H](N)CO3)c1 | Cmax/dose [5]: 137 nM; clearance [6]: 55 mL/min/kg; Vd [7]: 0.7 L/kg; half-life [8]: 0.3 h; AUC/dose [9]: 171 nM·h; bioavailability [10]: 25%; Papp A→B (in vitro [14]): 1.4 ×10⁻⁶ cm/s; Papp B→A (in vitro [12]): 41 ×10⁻⁶ cm/s; solubility thermodynamic (physchem): 60 µM (≈ 26.6 µg/mL); efflux ratio (in vitro [15]): 30
17 | < 0.7 | 60 | 1 | 10 | 2000 | 30 | 220 | 30 | 50 | 690 | 20 | CC(C)c1cc(-c2ccc3c(c2)[C@H](N)CO3)cc([C@@H]2CNc3cccc(CC(=O)O)c3O2)c1 | 2aPTT (Plasma [16]): 0.4 µM
18 | < 0.7 | 8920 | 16 | 45 | 16700 | 13400 | 11200 | 7210 | 3700 | 17400 | 1420 | CC(C)c1cc(-c2ccc3c(c2)[C@H](N)CO3)cc(C(O)Cn2ccc3cccc(C(=O)O)c32)c1 (mixture of isomers) | –
19 | 3 | 50 | 7 | 85 | 7100 | 210 | 840 | 130 | 100 | 6300 | – | CC1(C)COc2c(COc3ccccc3CC(=O)O)cc(-c3ccc4c(c3)[C@H](N)CO4)cc21 | Cmax/dose [5]: 1126 nM; clearance [6]: 4 mL/min/kg; Vd [7]: 1 L/kg; half-life [8]: 6.4 h; IC50 [13]: 16 nM; AUC/dose [9]: 6525 nM·h; bioavailability [10]: 61%; Ratio IC50 (Homo sapiens): 17; 2aPTT (Plasma [16]): 2.5 µM; 2PT (Plasma [23]): 19.8 µM; Papp A→B (in vitro [14]): 12 ×10⁻⁶ cm/s; Papp B→A (in vitro [12]): 12 ×10⁻⁶ cm/s; solubility thermodynamic (physchem): < 4 µM; efflux ratio (in vitro [15]): 1

From ChEMBL document CHEMBL4619774 (J Med Chem, 2020)
